# Results from paper PMC10667816, “A Cell‐Penetrant Peptide Disrupting the Transcription Factor CP2c Complexes Induces Cancer‐Specific Synthetic Lethality” (Advanced Science, 2023).
# *1 amine or outer side, *2 acyl side, *3 side chain or, on linkers, in order; H or OH if unused. Where a SMILES comes first, the peptide text is derived from it. Side-chain parts run from the residue outwards. The star is where a group is joined. γGlu = O=C(O)[C@H](CCC(=O)[*:2])N[*:1]; Palmitoyl = CCCCCCCCCCCCCCCC(=O)*
# Assays:
# [1] = system: diethylnitrosamine (DEN)‐induced orthotopic liver cancer; assay: DEN‐induced orthotopic liver cancer mouse model; format: in vivo; conditions: administered at five‐day intervals, C57BL/6 mice
# [2] = In vivo metabolic stability test by live imaging; design: species or system mouse; conditions: Hep3B CDX Balb/c nude mice, intravenous Cy5‐ACP52C 17 mg kg^−1, live imaging fluorescence over 24 h
# Text: (1 picture or pasted object on this page, not shown here)
# Scale bar represents 10 μm.
# [3] = system: normal cells derived from humans or mouse; assay: MTT growth inhibition in normal cells; format: cell-based, human; conditions: concentrations up to 10 µM
# Text: Figure S3. Anticancer effect of Pep #5-2 truncated and substitution mutants
# A) Names and peptide sequences of each mutant. Peptides corresponding to each Pep #5-2 truncated or substitution mutant are linked to a cell penetration peptide, iRGD (highlighted with yellow boxes). B-E) Cell growth inhibition profiles and GI50 values of each mutant in representative cancer cell lines. GI50 values estimated from duplicated data are expressed as means ± SD . Data are presented as means ± SD of two independent biological replicates. Anticancer effect of ACP52C, ACP52-51C, ACP52-52C, and ACP52-4C (B), amino acid substitution mutants of ACP52 -4C (C), and ACP52C, ACP52-4C, ACP52-31C, and ACP52-32C (D). Cell growth inhibition was teste d in cells using MTT assay over peptide dose at 48 h after peptide treatment, and GI50 values estimated from duplicated data are expressed as means ± SD. ( E) Summary of GI50 values of each mutant in representative cancer cell lines. GI 50 values estimated from duplicated data are expressed as means ± SD. Two-tailed unpaired Student’s t-tests, ***P < 0.001; ns: non-significant. […]
# [4] = system: over 450 human kinases or disease‐relevant mutant variants; assay: KINOMEscan screening; format: binding
# [5] = system: A431 epidermoid carcinoma; assay: A431 CDX mouse model; format: in vivo; conditions: intravenous injection every 2 or 3 days from day 14
# Experimental: Animal experiments were conducted in accordance with ethical guidelines, and all protocols were approved by the Institutional Animal Care and Use Committee under Hanyang University (approval numbers, 2014‐0016A, 2018‐0049A, 2018‐0207A, and 2019‐0169A), Chung‐Ang University (approval number, 2015‐00022), Chungbuk University (approval number, CBNUA‐1072‐17‐02), and Konkuk University (approval number, KU17130). To establish xenograft mice models, Hep3B, A431, U343, and PC9 cells were subcutaneously injected into the flank of Balb/c nude mice. For the MDA‐MB‐231 (LM1) cell line, it was implanted into the mammary fat pad of immunodeficient mice (NPG mice). […] Tumor volume was calculated using the formula of length × width^2)/2. […] The in vivo administration amount was determined based on the concentration of ACP52C confirmed at the cellular level, which was 2 µM. […] For ACP52C derivatives, the amount was adjusted to ensure a similar molar quantity of peptide injection, taking their molecular weights into account. For instance, in the case of ACP52CGK, ≈1.67 times the quantity was used compared to ACP52C to achieve an equivalent molar quantity. […] Hematoxylin and eosin (H&E)‐stained tissue sections were analyzed and photographed, and the representative histological images were recorded. […]
# [6] = system: human stem cells (hMSCs and hESCs), mouse embryonic fibroblasts (MEFs), and human non‐transformed cell lines (BEAS‐2B and MCF10A); assay: MTT growth inhibition in stem and non‐transformed cells; format: cell-based; conditions: concentration of 1 mM
# Experimental: Various cell lines were treated with peptides, either alone or in combination with the CASP2 inhibitor (Ac‐VDVAD‐CHO; Enzo ALX‐260‐058‐M001) at various concentrations for 4 days. Cell viability was assessed on day 2 or day 4 using MTT (3‐(4,5‐dimethylthiazol‐2‐yl)‐2,5‐diphenyltetrazolium bromide; Sigma–Aldrich, M2128) assay. In brief, fresh cells were seeded in flat‐bottomed 96‐well tissue culture plates at appropriate concentrations for each cell line per well using complete culture medium. The cells were incubated in 100 µL of culture medium containing various concentration of chemicals or peptides at 37 °C for 0 to 96 h. A solution of MTT (5 mg mL^−1) was added to the culture medium, and the cells were further incubated at 37 °C for an additional 3 h. The MTT medium was then removed, and the formazan crystals were dissolved in DMSO (100 µL per well). The formazan concentration was measured spectrophotometrically at 490 nm using a Varioskan Flash Spectral Scanning Multimode Reader (Thermo Scientific Korea). Nonlinear regression curves for growth inhibition and GI50 values for each cell line were estimated from independent replicates using the Prism (version 6) software (GraphPad Software Inc.)
compound,measurement,setting,value
CCCCCCCCCCCCCCCC(=O)N[C@@H](CCC(=O)NCCCC[C@H](NC(=O)CNC(=O)CNC(=O)[C@@H]1CCCN1C(=O)[C@H](CCCNC(=N)N)NC(=O)[C@H](CCC(N)=O)NC(=O)[C@@H]1CCCN1C(=O)[C@H](Cc1ccc(O)cc1)NC(=O)[C@H](CC(N)=O)NC(C)=O)C(=O)NCC(=O)NCC(=O)N[C@@H](CS)C(=O)N[C@@H](CCCNC(=N)N)C(=O)NCC(=O)N[C@@H](CC(=O)O)C(=O)N[C@@H](CCCCN)C(=O)NCC(=O)N1CCC[C@H]1C(=O)N[C@@H](CC(=O)O)C(=O)N[C@@H](CS)C(N)=O)C(=O)O [ACP52CGK] (Ac-NYPQRPGGK([γGlu-Palmitoyl])GGCRGDKGPDC-NH2),anti‐tumor efficacy,[1],remarkable anti‐tumor efficacy
CC(=O)N[C@@H](CC(N)=O)C(=O)N[C@@H](Cc1ccc(O)cc1)C(=O)N1CCC[C@H]1C(=O)N[C@@H](CCC(N)=O)C(=O)N[C@@H](CCCNC(=N)N)C(=O)N1CCC[C@H]1C(=O)N[C@@H](CS)C(=O)N[C@@H](CCCNC(=N)N)C(=O)NCC(=O)N[C@@H](CC(=O)O)C(=O)N[C@@H](CCCCN)C(=O)NCC(=O)N1CCC[C@H]1C(=O)N[C@@H](CC(=O)O)C(=O)N[C@@H](CS)C(N)=O [ACP52C] (Ac-NYPQRPCRGDKGPDC-NH2),"systemic metabolic stability in vivo (RL50, time for 50% retention of fluorescence)",[2],≈ 7.8 h
same,growth inhibition,[3],did not show any growth inhibition
same,interactions with kinases,[4],did not exhibit interactions
same,tumor weight,[5],significantly reduced tumor weight
same,growth inhibition,[6],minimal to zero growth inhibition
